From publication PMC7287031 (Pharmacology Research & Perspectives, 2020)

Columns and labels:
[1] = molecular target: T1, CYP2J2 (Homo sapiens, UniProt P51589); test: Enzyme kinetics with recombinant CYP2J2 and scaling to HLM; format: in vitro ADME
T1 construct: purchased BD Biosciences
T1 sequence (P51589 1-502): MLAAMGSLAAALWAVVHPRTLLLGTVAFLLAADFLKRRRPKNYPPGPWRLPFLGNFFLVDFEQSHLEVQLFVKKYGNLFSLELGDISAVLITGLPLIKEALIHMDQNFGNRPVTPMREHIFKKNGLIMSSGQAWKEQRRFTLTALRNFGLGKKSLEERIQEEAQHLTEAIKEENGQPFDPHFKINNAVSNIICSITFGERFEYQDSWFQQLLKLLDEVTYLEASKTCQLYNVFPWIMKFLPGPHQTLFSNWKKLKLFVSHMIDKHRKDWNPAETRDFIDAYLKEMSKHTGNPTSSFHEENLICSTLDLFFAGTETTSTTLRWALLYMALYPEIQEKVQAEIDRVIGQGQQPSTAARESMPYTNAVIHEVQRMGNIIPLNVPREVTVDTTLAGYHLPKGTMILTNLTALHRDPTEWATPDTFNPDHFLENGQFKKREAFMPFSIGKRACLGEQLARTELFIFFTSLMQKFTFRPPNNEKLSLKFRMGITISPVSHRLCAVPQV
Procedure: In vitro incubations were carried out in 100‐mM potassium phosphate buffer (pH 7.4) and 5‐mM MgCl2 with a total volume of 200 µL. Substrate and either human liver microsomes (HLM, BD Biosciences, mixed gender pool of n = 50) or recombinant human enzymes (BD Biosciences) were added and pre‐incubated for 3 minutes at 37°C. The reaction was started by addition of a fresh solution of NADPH (1 mmol/L final concentration). The samples were incubated at 37°C with agitation of 500 rpm. For incubations with CYP2A6, CYP2C9, CYP2C18, and CYP4A11, the phosphate buffer was replaced by TRIS buffer (100 mmol/L, pH 7.4) and for flavin‐containing monooxygenases (FMOs), a glycine buffer (50 mM, pH 9.5) was used.
The enzymatic reaction was stopped and the protein was precipitated by addition of an equal volume of methanol. After 30 min at −80°C, the samples were centrifuged at 30'000 x g for 15 min. The supernatant was withdrawn. Aliquots were analyzed by LSC and the supernatant was diluted with water to obtain a final solution containing less than 20% of the organic solvent. For samples of low substrate concentration, supernatants were evaporated to dryness under nitrogen, then re‐suspended in water containing less than 20% of methanol. Samples were analyzed by HPLC combined with radiodetection. […]

[2] = Human ADME study: mass balance, excretion of radioactivity in urine and feces; format: in vivo; conditions: for radioactive dose excreted in urine: N=6, after 504 hours, mean; for Cumulative excretion of radioactivity, Total (urine and feces, mean) / Cumulative excretion of radioactivity, Urine (mean): single oral dose 600 mg, healthy male volunteers, n=6
Procedure: This single‐center, open‐label, single oral dose study enrolled six healthy, non‐smoking, male Caucasian volunteers who were determined as being in good health according to their medical history, physical examination, vital signs, electrocardiogram, laboratory tests, and urinalysis. Healthy male volunteers were selected as the foundation of the extensive human ADME data should be based on a small cohort (6) of young healthy male volunteers with subsequent extension/bridging to actual patients as needed for the investigation of variables such as age, gender, ethnicity, and health on the metabolic profile. Subjects with relevant radiation exposure of > 0.2 mSv in the 12 months prior to the initiation of the study were excluded. […] The study protocol and dosimetry calculations were reviewed by the Independent Ethics Committee for the center, and written informed consent was obtained from all subjects before entering the study.
Subjects continued to fast for 4 hours after drug administration.
Radioactivity contents in urine and feces homogenates were determined at the bioanalytical laboratory of PRA International, Zuidlaren, the Netherlands. For urine, duplicate (1000 µL) aliquots were placed into 7‐mL glass vials (Perkin Elmer), after which 5 mL of scintillation cocktail (Ultima Gold™, Perkin Elmer) was added. After vortex mixing for 5 seconds, each sample was placed in a Tri‐Carb™ 3100 TR liquid scintillation analyzer (Perkin Elmer, Waltham, MA, USA) 30 minutes before counting. The total [^14C]‐radioactivity of the samples was determined by counting until a statistical error (two standard deviations) of 0.5% was obtained with a counting time of 10 or 30 minutes, depending on the level of radioactivity.
For feces homogenates, quadruplicate, accurately weighed (500 mg) aliquots were dried in a stove at 50 °C for 3 hours. […] The absorber agent for CO2 was 7‐mL Carbo‐Sorb® E (Perkin Elmer). At the end of the combustion cycle, the absorber was mixed with 13 mL of the scintillant Permafluor® E (Perkin Elmer). The samples were placed in the liquid scintillation analyzer for 60 minutes before counting. The total [^14C]‐radioactivity of the samples was determined by counting until a statistical error (2 s) of 0.5% was obtained with a counting time of 10 or 30 minutes, depending on the level of radioactivity.

Question: Which “fm,CYP” value ([1]; CYP2J2, share of total CYP-mediated metabolism in HLM) does the source give for CN(C)C(=O)c1cc2cnc(Nc3ccc(N4CCNCC4)cn3)nc2n1C1CCCC1 [ribociclib, Ribociclib] here?
Answer: The value was 0.8%.

Question: What about the fumic ([1]; CYP2J2 incubation) of the same compound?
Answer: Its fumic is 0.86.

Question: What about the “radioactive dose excreted in urine” value ([2]; human, single oral 600 mg [14C]-ribociclib) of the same compound?
Answer: Its value is 22.6%.

Question: And the “radioactive dose excreted in urine” value ([2]; human, single oral 600 mg [14C]-ribociclib, listed as [^14C]‐ribociclib)?
Answer: Its value is 22.6 ± 5.39%.

Question: And the “mass balance (total recovery of radioactivity)” value ([2]; human, single oral 600 mg [14C]-ribociclib, N=6, mean)?
Answer: The value was 91.7 ± 1.01%.

Question: What about the “Oral absorption (estimate)” value ([2]; human, radioactivity in urine plus radiolabeled metabolites in feces, assuming all formed systemically) of the same compound?
Answer: Its value is “approximately 58.8%”.

Question: And the “Cumulative excretion of radioactivity, Total (urine and feces, mean)” value (shortened to “Cumulative excretion … (urine and feces, mean)”) ([2]; time 0 h)?
Answer: The value was 0 % of dose.

Question: And the “Cumulative excretion of radioactivity, Urine (mean)” value (“Cumulative excretion … (mean)” for short) ([2]; time 0 h)?
Answer: Its value is 0 % of dose.

Question: And the “Cumulative excretion … (mean)” value ([2]; time 6 h)?
Answer: The value was 4.85 % of dose.

Question: And the “Cumulative excretion … (mean)” value ([2]; time 12 h)?
Answer: The value was 9.15 % of dose.

Question: And the “Cumulative excretion … (urine and feces, mean)” value ([2]; time 24 h)?
Answer: Its value is 17.2 % of dose.

Question: What about the “Cumulative excretion … (mean)” value ([2]; time 24 h) of the same compound?
Answer: Its value is 12.9 % of dose.

Question: And the “Cumulative excretion … (urine and feces, mean)” value ([2]; time 48 h)?
Answer: Its value is 47.5 % of dose.

Question: What about the “Cumulative excretion … (mean)” value ([2]; time 48 h) of the same compound?
Answer: The value was 17.0 % of dose.

Question: And the “Cumulative excretion … (urine and feces, mean)” value ([2]; time 72 h)?
Answer: Its value is 63.9 % of dose.

Question: And the “Cumulative excretion … (mean)” value ([2]; time 72 h)?
Answer: Its value is 19.0 % of dose.

Question: What about the “Cumulative excretion … (urine and feces, mean)” value ([2]; time 96 h) of the same compound?
Answer: Its value is 75.9 % of dose.

Question: What about the “Cumulative excretion … (mean)” value ([2]; time 96 h) of the same compound?
Answer: Its value is 20.2 % of dose.

Question: And the “Cumulative excretion … (urine and feces, mean)” value ([2]; time 120 h)?
Answer: Its value is 79.7 % of dose.

Question: What about the “Cumulative excretion … (mean)” value ([2]; time 120 h) of the same compound?
Answer: Its value is 20.9 % of dose.

Question: And the “Cumulative excretion … (urine and feces, mean)” value ([2]; time 144 h)?
Answer: The value was 83.8 % of dose.

Question: And the “Cumulative excretion … (mean)” value ([2]; time 144 h)?
Answer: Its value is 21.4 % of dose.

Question: What about the “Cumulative excretion … (urine and feces, mean)” value ([2]; time 168 h) of the same compound?
Answer: The value was 86.7 % of dose.

Question: What about the “Cumulative excretion … (mean)” value ([2]; time 168 h) of the same compound?
Answer: The value was 21.8 % of dose.

Question: And the “Cumulative excretion … (urine and feces, mean)” value ([2]; time 216 h)?
Answer: Its value is 88.6 % of dose.

Question: What about the “Cumulative excretion … (mean)” value ([2]; time 216 h) of the same compound?
Answer: Its value is 22.2 % of dose.

Question: What about the “Cumulative excretion … (urine and feces, mean)” value ([2]; time 240 h) of the same compound?
Answer: The value was 89.1 % of dose.

Question: What about the “Cumulative excretion … (mean)” value ([2]; time 240 h) of the same compound?
Answer: Its value is 22.3 % of dose.

Question: And the “Cumulative excretion … (urine and feces, mean)” value ([2]; time 264 h)?
Answer: Its value is 89.6 % of dose.

Question: And the “Cumulative excretion … (mean)” value ([2]; time 264 h)?
Answer: The value was 22.5 % of dose.

Question: And the “Cumulative excretion … (urine and feces, mean)” value ([2]; time 288 h)?
Answer: The value was 90.3 % of dose.

Question: And the “Cumulative excretion … (mean)” value ([2]; time 288 h)?
Answer: Its value is 22.5 % of dose.

Question: What about the “Cumulative excretion … (urine and feces, mean)” value ([2]; time 336 h) of the same compound?
Answer: Its value is 90.9 % of dose.

Question: And the “Cumulative excretion … (mean)” value ([2]; time 336 h)?
Answer: The value was 22.6 % of dose.

Question: What about the “Cumulative excretion … (urine and feces, mean)” value ([2]; time 360 h) of the same compound?
Answer: Its value is 91.1 % of dose.

Question: And the “Cumulative excretion … (mean)” value ([2]; time 360 h)?
Answer: Its value is 22.6 % of dose.

Question: And the “Cumulative excretion … (urine and feces, mean)” value ([2]; time 384 h)?
Answer: Its value is 91.3 % of dose.

Question: And the “Cumulative excretion … (mean)” value ([2]; time 384 h)?
Answer: Its value is 22.6 % of dose.

Question: What about the “Cumulative excretion … (urine and feces, mean)” value ([2]; time 408 h) of the same compound?
Answer: Its value is 91.4 % of dose.

Question: What about the “Cumulative excretion … (mean)” value ([2]; time 408 h) of the same compound?
Answer: The value was 22.6 % of dose.

Question: And the “Cumulative excretion … (urine and feces, mean)” value ([2]; time 432 h)?
Answer: The value was 91.6 % of dose.

Question: And the “Cumulative excretion … (mean)” value ([2]; time 432 h)?
Answer: Its value is 22.6 % of dose.

Question: And the “Cumulative excretion … (urine and feces, mean)” value ([2]; time 456 h)?
Answer: Its value is 91.6 % of dose.

Question: What about the “Cumulative excretion … (mean)” value ([2]; time 456 h) of the same compound?
Answer: Its value is 22.6 % of dose.

Question: And the “Cumulative excretion … (urine and feces, mean)” value ([2]; time 480 h)?
Answer: The value was 91.7 % of dose.

Question: What about the “Cumulative excretion … (mean)” value ([2]; time 480 h) of the same compound?
Answer: The value was 22.6 % of dose.

Question: What about the “Cumulative excretion … (urine and feces, mean)” value ([2]; time 504 h) of the same compound?
Answer: Its value is 91.7 % of dose.

Question: What about the “Cumulative excretion … (mean)” value ([2]; time 504 h) of the same compound?
Answer: Its value is 22.6 % of dose.
